Experiment: xn = mol fraction of the nth substance listed
Conditions: 101 kPa

CCCC[n+]1ccn(C)c1.N[C@@H](CCC(=O)O)C(=O)[O-] + CO
viscosity [mPa·s]
Conditions | x2 = 0.1087 | x2 = 0.2002 | x2 = 0.2995 | x2 = 0.4003 | x2 = 0.4998 | x2 = 0.6002 | x2 = 0.7 | x2 = 0.8001 | x2 = 0.9
298.15 K | 59.8 | – | – | 24.6 | 16.4 | 9.69 | – | 2.31 | –
303.15 K | 49.9 | 39.6 | 30.3 | 22.2 | 15.3 | – | 5.48 | 2.82 | 1.48
308.15 K | 39.1 | 31.2 | 24.1 | 18.1 | 12.9 | – | 5.2 | – | 1.33
313.15 K | 31.6 | – | 20 | 15 | 10.8 | 7.3 | – | 2.54 | 1.24

Source: a compilation of properties of binary mixtures (doi:10.1007/s10953-011-9788-x)
